Converted amounts (≈) assume the structure as drawn. The source made the active and inactive calls. The rule behind the calls is not given here.
Tests used:
[1] = target: T1, DNA polymerase theta (Homo sapiens, UniProt O75417); experiment: Inhibition of recombinant human full length DNA polymerase theta using DNA substrate measured after 1 hrs in presence of dNTPs by plate reader assay
[2] = Metabolic stability in mouse liver microsomes assessed as intrinsic clearance; assay type: ADME, Microsome; conditions: read-out: CLH
[3] = test system: DLD-1; experiment: Antiproliferative activity against human BRCA-2 deficient DLD-1 cells; assay type: functional, cell-based
[4] = Inhibition of microhomology-mediated end joining in HEK293 cells; assay type: functional, cell-based, Homo sapiens
[5] = test system: DLD-1; experiment: Antiproliferative activity against human DLD-1 cells; assay type: functional, cell-based
[6] = target: T1, DNA polymerase theta; experiment: Displacement of tracer from recombinant Tb-labeled DNA polymerase theta (unknown origin) assessed as end point Kd using DNA as substrate preincubated for 30 mins followed by compound addition for 2 hrs by HTRF assay
[7] = Lipophilicity, logD of compound; assay type: physicochemical; conditions: octanol/water
[8] = target: T1, DNA polymerase theta; experiment: Displacement of tracer from recombinant Tb-labeled DNA polymerase theta (unknown origin) using DNA as substrate preincubated for 30 mins followed by compound addition for 2 hrs by HTRF assay
[9] = Metabolic stability in human liver microsomes assessed as intrinsic clearance; assay type: ADME, Microsome; conditions: read-out: CLH
[10] = Metabolic stability in rat liver microsomes assessed as intrinsic clearance; assay type: ADME, Microsome; conditions: read-out: CLH
[11] = Volume of distribution at steady state in mouse at 3 mg/kg, iv; assay type: ADME, organism-based; conditions: in vivo, read-out: Vdss
[12] = test system: Breast carcinoma cell; experiment: Antitumor activity against BRCA1/SHLD2 knockout rat breast cancer xenograft model assessed as tumor growth inhibition at 100 mg/kg, po qd; assay type: functional, organism-based
[13] = Solubility of the compound; assay type: physicochemical
[14] = Mutagenicity in Salmonella typhimurium LT2 TA98 in presence or absence of S9 fraction by Ames test; assay type: toxicity; conditions: salmonella enterica subsp. enterica serovar typhimurium
[15] = Clearance in mouse plasma at 3 mg/kg, iv; assay type: ADME, organism-based
[16] = In vivo inhibition of DNA polymerase theta in mouse assessed as fold induction of micronuclei in reticulocytes at 150 mg/kg, po BID for 4 days by flow cytometry analysis; assay type: functional; conditions: time 4 day
[17] = Free maximum concentration of drug in rat at 10 mg/kg, po; assay type: ADME, organism-based; conditions: in vivo
[18] = Clearance in mouse plasma at 0.3 mg/kg, iv; assay type: ADME, organism-based
[19] = Mutagenicity in Salmonella typhimurium LT2 TA100 in presence or absence of S9 fraction by Ames test; assay type: toxicity; conditions: salmonella enterica subsp. enterica serovar typhimurium
[20] = Clearance in rat plasma at 3 mg/kg, iv; assay type: ADME, organism-based
[21] = AUCinfinity in rat at 10 mg/kg, po; assay type: ADME, organism-based; design: time infinity, dose 10 mg/kg, route po; conditions: in vivo
[22] = Half life in rat at 3 mg/kg, iv; assay type: ADME, organism-based; conditions: in vivo
[23] = Oral bioavailability in rat at 10 mg/kg; assay type: ADME, organism-based; conditions: in vivo
[24] = Oral bioavailability in mouse at 10 mg/kg; assay type: ADME, organism-based; conditions: in vivo
[25] = Free maximum concentration of drug in mouse at 10 mg/kg, po; assay type: ADME, organism-based; conditions: in vivo
[26] = AUCinfinity in mouse at 10 mg/kg, po; assay type: ADME, organism-based; design: time infinity, dose 10 mg/kg, route po; conditions: in vivo
[27] = Half life in mouse at 3 mg/kg, iv; assay type: ADME, organism-based; conditions: in vivo
[28] = Volume of distribution at steady state in rat at 3 mg/kg, iv; assay type: ADME, organism-based; conditions: in vivo, read-out: Vdss
[29] = target: T1, DNA polymerase theta; experiment: Inhibition of human full length DNA polymerase theta ATPase activity by ADP-Glo assay
[30] = Thermodynamic solubility of the compound; assay type: physicochemical; conditions: read-out: Therm_solubility

T1 sequence (O75417 whole entry): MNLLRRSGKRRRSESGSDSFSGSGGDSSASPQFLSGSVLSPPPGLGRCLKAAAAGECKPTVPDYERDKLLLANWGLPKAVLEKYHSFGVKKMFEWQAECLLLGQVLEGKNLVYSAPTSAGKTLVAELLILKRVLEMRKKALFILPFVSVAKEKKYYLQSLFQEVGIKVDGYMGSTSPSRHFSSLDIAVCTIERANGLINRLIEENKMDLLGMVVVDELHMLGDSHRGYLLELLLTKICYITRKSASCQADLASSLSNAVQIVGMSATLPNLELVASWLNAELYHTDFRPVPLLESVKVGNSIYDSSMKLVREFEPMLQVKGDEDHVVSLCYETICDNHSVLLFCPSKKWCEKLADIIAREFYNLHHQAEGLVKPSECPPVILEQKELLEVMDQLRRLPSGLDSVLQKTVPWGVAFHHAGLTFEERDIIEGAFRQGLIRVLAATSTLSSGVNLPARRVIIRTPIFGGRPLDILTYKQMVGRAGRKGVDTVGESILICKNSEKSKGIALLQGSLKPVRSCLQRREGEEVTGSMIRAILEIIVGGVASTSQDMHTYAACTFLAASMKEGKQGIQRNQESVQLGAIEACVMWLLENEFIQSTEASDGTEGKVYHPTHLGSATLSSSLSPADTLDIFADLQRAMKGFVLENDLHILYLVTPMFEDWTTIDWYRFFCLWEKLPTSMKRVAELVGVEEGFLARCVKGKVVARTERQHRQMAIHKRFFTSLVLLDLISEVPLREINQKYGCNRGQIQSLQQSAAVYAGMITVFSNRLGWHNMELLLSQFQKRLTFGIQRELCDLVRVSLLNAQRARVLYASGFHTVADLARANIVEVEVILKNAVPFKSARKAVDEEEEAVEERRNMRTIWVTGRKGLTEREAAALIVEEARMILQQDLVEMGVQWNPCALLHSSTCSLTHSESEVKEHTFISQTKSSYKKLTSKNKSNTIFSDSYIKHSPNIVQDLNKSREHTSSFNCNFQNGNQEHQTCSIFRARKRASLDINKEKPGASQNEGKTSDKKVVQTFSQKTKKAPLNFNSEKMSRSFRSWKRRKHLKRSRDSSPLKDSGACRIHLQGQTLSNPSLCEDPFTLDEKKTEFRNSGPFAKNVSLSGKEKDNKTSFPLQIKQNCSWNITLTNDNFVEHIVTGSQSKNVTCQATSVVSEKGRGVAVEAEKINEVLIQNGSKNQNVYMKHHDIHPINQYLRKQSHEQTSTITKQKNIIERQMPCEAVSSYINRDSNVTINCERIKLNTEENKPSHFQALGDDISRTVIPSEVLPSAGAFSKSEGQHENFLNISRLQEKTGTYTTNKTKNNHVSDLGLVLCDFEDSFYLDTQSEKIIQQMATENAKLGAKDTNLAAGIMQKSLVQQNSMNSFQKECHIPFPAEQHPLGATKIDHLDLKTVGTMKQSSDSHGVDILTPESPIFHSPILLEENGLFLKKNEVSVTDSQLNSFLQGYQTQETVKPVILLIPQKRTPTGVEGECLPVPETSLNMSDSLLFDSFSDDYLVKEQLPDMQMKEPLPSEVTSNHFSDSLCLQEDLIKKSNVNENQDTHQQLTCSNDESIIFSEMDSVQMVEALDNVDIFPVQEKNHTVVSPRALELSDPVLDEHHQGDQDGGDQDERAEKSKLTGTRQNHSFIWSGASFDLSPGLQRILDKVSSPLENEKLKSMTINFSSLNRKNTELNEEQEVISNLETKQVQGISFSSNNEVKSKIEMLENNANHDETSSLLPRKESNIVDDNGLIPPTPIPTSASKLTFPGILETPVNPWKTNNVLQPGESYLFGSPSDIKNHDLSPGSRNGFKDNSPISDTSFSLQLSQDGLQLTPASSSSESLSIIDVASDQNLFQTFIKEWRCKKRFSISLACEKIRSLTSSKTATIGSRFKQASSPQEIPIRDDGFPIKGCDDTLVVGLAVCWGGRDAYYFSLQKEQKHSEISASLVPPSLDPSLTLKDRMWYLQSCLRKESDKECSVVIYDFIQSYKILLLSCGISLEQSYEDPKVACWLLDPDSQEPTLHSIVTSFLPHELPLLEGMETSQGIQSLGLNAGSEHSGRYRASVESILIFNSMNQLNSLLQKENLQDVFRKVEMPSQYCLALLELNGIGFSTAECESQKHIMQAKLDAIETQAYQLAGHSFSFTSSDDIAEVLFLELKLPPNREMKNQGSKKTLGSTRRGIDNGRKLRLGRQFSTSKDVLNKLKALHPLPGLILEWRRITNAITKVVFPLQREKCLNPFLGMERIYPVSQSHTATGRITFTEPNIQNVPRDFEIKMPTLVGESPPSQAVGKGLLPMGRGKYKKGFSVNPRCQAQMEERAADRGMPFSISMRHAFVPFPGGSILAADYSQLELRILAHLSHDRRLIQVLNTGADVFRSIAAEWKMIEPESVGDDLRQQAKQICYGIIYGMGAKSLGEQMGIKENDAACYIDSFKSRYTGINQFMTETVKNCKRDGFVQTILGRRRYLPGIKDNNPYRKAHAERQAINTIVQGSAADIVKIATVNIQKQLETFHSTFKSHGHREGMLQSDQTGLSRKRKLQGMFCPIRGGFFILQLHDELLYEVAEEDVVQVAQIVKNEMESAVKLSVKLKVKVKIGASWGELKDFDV

## Cc1cc(C(F)(F)F)cc(N2C(=O)OC[C@H]2C(=O)N(C)c2ccc(F)c(Cl)c2)n1
[1]
  IC50: 0.015 µM
[2]
  microsomal CLint: 138 µL/min/mg

## Cc1cc(C(F)(F)F)cc(N2C(=O)C[C@@H](O)[C@H]2C(=O)N(C)c2ccc(F)c(Cl)c2)n1
[3]
  EC50: 2 µM
[1]
  IC50: 0.0059 µM
[4]
  EC50: 0.255 µM
[2]
  microsomal CLint: 260 µL/min/mg
[5]
  EC50: > 12 µM

## Cc1cc(C(F)(F)F)cc(N2C(=O)OC[C@H]2C(=O)N(C)c2cccc(Cl)c2F)n1
[2]
  microsomal CLint: 165 µL/min/mg

## CCN(C(=O)[C@H](CO)Nc1nc(C)cc(C(F)(F)F)c1C#N)c1cccc(C)c1
[3]
  EC50: 11 µM
[1]
  IC50: 0.079 µM
[4]
  EC50: 0.255 µM
[5]
  EC50: > 12 µM
[6]
  Kd: 0.035 µM
[7]
  logD: 4

## CCN(C(=O)COc1nc(C)c(Br)c(C)c1C#N)c1cccc(C)c1
[1]
  IC50: 1.5 µM

## Cc1cc(C(F)(F)F)c(C#N)c(N2C[C@@H](O)C[C@H]2C(=O)N(C)c2ccccc2)n1
[3]
  EC50: 8 µM
[4]
  EC50: 0.4 µM
[5]
  EC50: > 12 µM
[6]
  Kd: 0.11 µM

## Cc1cccc(N(C)C(=O)[C@@H]2C[C@@H](O)CN2c2nc(C)cc(C(F)(F)F)c2C#N)c1
[3]
  EC50: 6 µM
[4]
  EC50: 0.315 µM
[5]
  EC50: > 12 µM

## CCN(C(=O)COc1cc(C(C)C)cc(C)n1)c1cccc(C)c1
[1]
  IC50: 0.4 µM

## Cc1cc(C(F)(F)F)cc(N2C(=O)OC[C@H]2C(=O)N(C)c2ccc(F)c(C)c2F)n1
[1]
  IC50: 0.0041 µM
[2]
  microsomal CLint: 818 µL/min/mg

## Cc1cccc(N(C)C(=O)[C@@H]2COC(=O)N2c2cc(C(F)(F)F)cc(C)n2)c1
[2]
  microsomal CLint: 580 µL/min/mg
[7]
  logD: 3.6

## Cc1cc(C(F)(F)F)cc(N2C(=O)OC[C@H]2C(=O)N(C)c2cc(Cl)c(F)cc2F)n1
[2]
  microsomal CLint: 98 µL/min/mg

## CCN(C(=O)COc1nc(C)c(Cl)c(C)c1C#N)c1cccc(C)c1
[1]
  IC50: 0.63 µM

## CCN(C(=O)[C@H](C)Nc1nc(C)cc(C(C)C)c1C#N)c1cccc(C)c1
[1]
  IC50: 0.049 µM

## Cc1cccc(N(C)C(=O)[C@@H]2C[C@H](O)CN2c2nccc(C(F)(F)F)c2C#N)c1
[3]
  EC50: 11.5 µM
[4]
  EC50: 1.03 µM
[5]
  EC50: > 12 µM

## Cc1cccc(N(C)C(=O)[C@@H]2C[C@H](O)CN2c2nc(C)cc(C)c2C#N)c1
[3]
  EC50: 4.1 µM
[4]
  EC50: 0.28 µM
[5]
  EC50: > 12 µM
[6]
  Kd: 0.051 µM
[8]
  Kd: 0.019 µM

## Cc1cccc(N(C)C(=O)[C@@H]2[C@@H](O)CCN2c2nc(C)cc(C(F)(F)F)c2C#N)c1
[3]
  EC50: 3 µM
[4]
  EC50: 0.32 µM
[5]
  EC50: > 12 µM
[6]
  Kd: 0.042 µM
[8]
  Kd: 0.024 µM

## Cc1cc(C(F)(F)F)cc(N2C(=O)[C@H](O)[C@H](O)[C@@H]2C(=O)N(C)c2ccc(F)c(Cl)c2)n1
[3]
  EC50: > 12 µM
[1]
  IC50: > 12 µM
[5]
  EC50: > 12 µM

## CCN(C(=O)[C@@H]1COCCN1c1nc(C)cc(C(F)(F)F)c1C#N)c1cccc(C)c1
[1]
  IC50: 2.7 µM

## CCN(C(=O)[C@H](C)Nc1nc(C)cc(C(F)(F)F)c1C#N)c1cccc(C)c1
[1]
  IC50: 0.029 µM

## Cc1cc(C(F)(F)F)cc(N2C(=O)OC[C@H]2C(=O)N(C)c2cccc(Cl)c2)n1
[2]
  microsomal CLint: 410 µL/min/mg

## CCN(C(=O)[C@@H]1[C@H](O)[C@H](O)C(=O)N1c1cc(C(F)(F)F)cc(C)n1)c1ccc(F)c(Cl)c1
[3]
  EC50: 6.9 µM
[4]
  EC50: 0.362 µM
[2]
  microsomal CLint: 20 µL/min/mg
[5]
  EC50: > 12 µM
[9]
  microsomal CLint: < 10 µL/min/mg
[10]
  microsomal CLint: 30 µL/min/mg

## CCN(C(=O)[C@@H]1C[C@H](O)C(=O)N1c1cc(C(F)(F)F)cc(C)n1)c1ccc(F)c(Cl)c1
[2]
  microsomal CLint: 181 µL/min/mg

## Cc1cc(C(F)(F)F)cc(N2C(=O)OC[C@H]2C(=O)N(C)c2ccc(F)c(C)c2)n1
[1]
  IC50: 0.0094 µM
[2]
  microsomal CLint: 404 µL/min/mg

## CCN(C(=O)[C@@H]1COC(=O)N1c1cc(C(F)(F)F)cc(C)n1)c1ccc(F)c(Cl)c1
[2]
  microsomal CLint: 260 µL/min/mg
[7]
  logD: 4

## CCN(C(=O)[C@H](C)Nc1nc(C)cc(C)c1C#N)c1cccc(C)c1
[1]
  IC50: 0.23 µM

## Cc1cc(C(F)(F)F)cc(N2C(=O)[C@@H](O)C[C@H]2C(=O)N(C)c2ccc(F)c(Cl)c2)n1
[2]
  microsomal CLint: 96 µL/min/mg
[9]
  microsomal CLint: 60 µL/min/mg

## Cc1cc(C(F)(F)F)cc(N2C(=O)OC[C@H]2C(=O)N(C)c2cc(Cl)ccc2F)n1
[2]
  microsomal CLint: 157 µL/min/mg

## CCN(C(=O)COc1cc(C(F)(F)F)cc(C)n1)c1cccc(C)c1
[1]
  IC50: 0.53 µM

## Cc1cc(C(F)(F)F)cc(N2C(=O)OC[C@H]2C(=O)N(c2ccc(F)c(Cl)c2)C(C)C)n1
[2]
  microsomal CLint: 48 µL/min/mg
[7]
  logD: 4.4

## CCN(C(=O)COc1cc(C)cc(C)n1)c1cccc(C)c1
[1]
  IC50: 4.2 µM

## CCN(C(=O)COc1nc(C)cc(C)c1C#N)c1cccc(C)c1
[3]
  EC50: > 12 µM
[1]
  IC50: 4.4 µM
[4]
  EC50: 1.84 µM
[5]
  EC50: > 12 µM
[6]
  Kd: 0.82 µM

## Cc1cc(C(F)(F)F)cc(N2C(=O)OC[C@H]2C(=O)N(C)c2ccc(F)c(Cl)c2F)n1
[1]
  IC50: 0.0054 µM
[2]
  microsomal CLint: 210 µL/min/mg

## Cc1cccc(N(C(=O)[C@@H]2CCCN2c2nc(C)cc(C(F)(F)F)c2C#N)C(C)C)c1
[1]
  IC50: 0.0088 µM

## Cc1cccc(N(C)C(=O)[C@@H]2C[C@H](O)CN2c2nc(C)cc(C(F)(F)F)c2C#N)c1
[3]
  EC50: 2.3 µM
[4]
  EC50: 0.205 µM
[5]
  EC50: > 12 µM
[7]
  logD: 3.6

## Cc1cc(C(F)(F)F)cc(N2C(=O)[C@@H](O)[C@@H](O)[C@H]2C(=O)N(C)c2ccc(F)c(Cl)c2)n1
[11]
  Vd: 2.5 L/kg
[3]
  EC50: 1.1 µM
[12]
  Activity: Active
[1]
  IC50: 0.0076 µM
[4]
  EC50: 0.24 µM
[2]
  microsomal CLint: 42 µL/min/mg
[13]
  solubility: 880 µM (≈ 406 µg/mL)
[5]
  EC50: > 12 µM
[9]
  microsomal CLint: 30 µL/min/mg
[14]
  Activity: Non-Toxic
[15]
  clearance: 0.168 L/h/kg
[16]
  fold change (FC): 2
[17]
  fCmax: 79 nM
[18]
  clearance: 0.984 L/h/kg
[19]
  Activity: Non-Toxic
[20]
  clearance: 2.1 L/h/kg
[21]
  AUC(0-inf): 2.75 µg·h/mL
[7]
  logD: 3
[22]
  half-life: 1.3 h
[23]
  bioavailability: 57%
[24]
  bioavailability: 80%
[25]
  fCmax: 405 nM
[26]
  AUC(0-inf): 54.7 µg·h/mL
[27]
  half-life: 7 h
[10]
  microsomal CLint: 50 µL/min/mg
[28]
  Vd: 2.9 L/kg

## CCN(C(=O)[C@@H](C)Nc1nc(C)cc(C(F)(F)F)c1C#N)c1cccc(C)c1
[1]
  IC50: 5.1 µM

## CCN(C(=O)COc1nc(C)c(Br)c(C(F)(F)F)c1C#N)c1cccc(C)c1
[1]
  IC50: 0.4 µM

## Cc1cccc(N(C)C(=O)[C@@H]2[C@H](O)CCN2c2nc(C)cc(C(F)(F)F)c2C#N)c1
[3]
  EC50: 0.8 µM
[4]
  EC50: 0.18 µM
[2]
  microsomal CLint: > 1500 µL/min/mg
[5]
  EC50: > 12 µM
[6]
  Kd: 0.0064 µM
[7]
  logD: 3.5
[29]
  IC50: > 12 µM
[30]
  solubility thermodynamic: 381 µM (≈ 159 µg/mL)
[8]
  Kd: 0.0048 µM

## CCN(C(=O)[C@@H]1CCCN1c1nc(C)cc(C)c1C#N)c1cccc(C)c1
[1]
  IC50: 0.072 µM

## CCN(C(=O)COc1nc(C)cc(C(F)(F)F)c1C#N)c1cccc(C)c1
[3]
  EC50: > 12 µM
[1]
  IC50: 0.5 µM
[4]
  EC50: 0.68 µM
[5]
  EC50: > 12 µM
[6]
  Kd: 0.061 µM

## CCN(C(=O)CNc1nc(C)cc(C)c1C#N)c1cccc(C)c1
[1]
  IC50: 1.8 µM

## Cc1cccc(N(C)C(=O)[C@@H]2CCC(=O)N2c2cc(C(F)(F)F)cc(C)n2)c1
[1]
  IC50: 0.0068 µM
[2]
  microsomal CLint: > 1000 µL/min/mg
[7]
  logD: 3.7
